Assay [1] addresses human C5a receptor (C5aR) (Homo sapiens (Human), UniProt P21730). Kind of assay: Inhibition of C5a-C5aR binding (biotinylated human C5a, U937/C5aR cells, FACS). Here is the method: U937 cells were originally obtained from the American Type Culture Collection (ATCC) and transfected with human C5a receptor (C5aR). U937/C5aR cells were cultured at 37° C., 5% CO2 in RPMI1640 (Gibco) supplemented with 10% FBS (Gibco) and 350 µg/ml Geneticin (Gibco) and passaged every 3 days to maintain the density range from […] to 2×10^6 cells/ml.
Human C5a biotinylation was performed according to the procedure provided by manufacturer (Thermo Scientific, A39257). 10 mM solution of Sulfo-NHS-LC-Biotin was prepared by adding 180μl ultrapure H2O to the 1 mg vial immediately. 12 μl 10 mM biotin reagent was added to […] human C5a solution, gently pipetted for 3 seconds, and incubated on ice for 2 hours. Amicon ultra-0.5 centrifuge filter device (Millipore, UFC5003BK) was pre-rinsed with Milli-Q H2O, centrifuged at 14000 g for 5 min immediately before use. Up to […] sample (diluted by PBS) was added to the device and capped. The device was spinned at 14000 g for approximately 5 min. 250 μl PBS was added to the filter device, spinned at 14000 g for 5 min, and repeatedly washed 6 times. The filter device was separated from the microcentrifuge tube and placed upside down in a clean microcentrifuge tube, spinned for 2 min at 1000 g to transfer the concentrated sample from the device to the tube.
U937/C5aR cells were collected and washed twice by PBS, cells were suspended in PBS+0.1% BSA buffer at the density of 3×10^6 cells/ml. 100 μl cell suspension was added to a 96 well microplate. 50 μl compound diluted in assay buffer and 50 μl biotinylated ligand human C5a (30 nM) were added to corresponding wells in order and the plate was incubated on ice for 120 min and then centrifuged at 1000 rpm for 3-5 min at 4° C. Supernatant was removed and cells were washed by pre-cold PBS twice. 100 μl FITC conjugated streptavidin was added to cells, incubated on ice for another 30 min, and then centrifuged at 1000 rpm for 3-5 min at 4° C. Supernatant was removed and cells were washed by pre-cold PBS twice. 150 μl PBS was added to suspend the cells and signals were detected by FACS (Beckman, Cytoflex).

The target of another assay is C5aR (Homo sapiens (Human), UniProt P21730). Kind of assay: Calcium mobilization (U937/C5aR or HEK293/C5aR cells, FLIPR). The conditions noted are these: agonist human C5a at EC80, FLIPR. Type of assay: cell-based. A digest of the protocol:
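U937 or HEK293 cells expressing human C5aR, plated overnight, then preincubated 60 min with compound. After Fluo-4 Direct dye loading (50 min at 37 °C, 10 min at room temperature), intracellular calcium rise on FLIPR was triggered by human C5a agonist at EC80.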

Each structure is given as a SMILES string. Some results are limits rather than exact numbers.

Chain of C5aR (P21730 whole entry): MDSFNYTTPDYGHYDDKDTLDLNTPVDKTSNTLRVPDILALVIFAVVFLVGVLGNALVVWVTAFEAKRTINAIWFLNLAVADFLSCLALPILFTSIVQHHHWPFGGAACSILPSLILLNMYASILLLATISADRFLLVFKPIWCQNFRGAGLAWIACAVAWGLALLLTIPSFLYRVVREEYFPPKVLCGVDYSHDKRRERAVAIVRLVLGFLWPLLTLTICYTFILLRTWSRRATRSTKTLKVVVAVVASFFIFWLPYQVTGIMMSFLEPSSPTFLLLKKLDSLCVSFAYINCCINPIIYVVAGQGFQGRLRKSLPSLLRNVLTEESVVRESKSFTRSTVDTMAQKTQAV
Chain of human C5a receptor (C5aR) (P21730 whole entry): as above

`Cc1ccc(NC(=O)[C@H]2C[C@H]3CCC[C@H]3N(C(=O)c3c(C)cccc3F)[C@H]2c2ccc(NC3CCCC3)cc2)cn1` (racemic) [Compound 63, cis-2-(4-(cyclopentylamino)phenyl)-1-(2-fluoro-6-methylbenzoyl)-N-(6-methylpyridin-3-yl)octahydro-1H-cyclopenta[b]pyridine-3-carboxamide]: the results for the IC50 (in assay [1]; on C5aR) were < 50 nM and 500 to 2000 nM, respectively.
In the case of `Cc1cccc(F)c1C(=O)N1[C@@H]2CCC[C@@H]2C[C@H](C(=O)Nc2ccc(Cl)c(Cl)c2)[C@@H]1c1ccc(NC2CCCC2)cc1` (racemic) [Compound 64, cis-2-(4-(cyclopentylamino)phenyl)-N-(3,4-dichlorophenyl)-1-(2-fluoro-6-methylbenzoyl)octahydro-1H-cyclopenta[b]pyridine-3-carboxamide], the IC50 was 500 to 2000 nM in assay [1] and 2000 to 10000 nM at C5aR.
The matching figures for `Cc1cccc(F)c1C(=O)N1[C@@H]2CCC[C@@H]2C[C@H](C(=O)Nc2ccc(NC=O)c(O)c2)[C@@H]1c1ccc(NC2CCCC2)cc1` (racemic) [Compound 68, cis-2-(4-(cyclopentylamino)phenyl)-1-(2-fluoro-6-methylbenzoyl)-N-(4-formamido-3-hydroxyphenyl)octahydro-1H-cyclopenta[b]pyridine-3-carboxamide]: 2000 to 5000 nM and 500 to 2000 nM.
The matching figures for `Cc1cccc(F)c1C(=O)N1[C@@H]2CCC[C@@H]2C[C@H](C(=O)Nc2ccc3ncsc3c2)[C@@H]1c1ccc(NC2CCCC2)cc1` (racemic) [Compound 69, cis-N-(benzo[d]thiazol-6-yl)-2-(4-(cyclopentylamino)phenyl)-1-(2-fluoro-6-methylbenzoyl)octahydro-1H-cyclopenta[b]pyridine-3-carboxamide]: 50 to 500 nM and 2000 to 10000 nM.
On to `Cc1cccc(F)c1C(=O)N1[C@@H]2CCC[C@@H]2C[C@H](C(=O)Nc2ccc3c(c2)OCCO3)[C@@H]1c1ccc(NC2CCCC2)cc1` (racemic) [Compound 71, cis-2-(4-(cyclopentylamino)phenyl)-N-(2,3-dihydrobenzo[b][1,4]dioxin-6-yl)-1-(2-fluoro-6-methylbenzoyl)octahydro-1H-cyclopenta[b]pyridine-3-carboxamide], for which the figures for the IC50 (in assay [1]; at C5aR) were < 50 nM and 2000 to 10000 nM, respectively.
The matching figures for `Cc1cccc(F)c1C(=O)N1C2CCC[C@@H]2C[C@H](C(=O)Nc2cccc(Cl)c2)[C@@H]1c1ccc(NC2CCCC2)cc1` (relative stereo) [Compound 55, cis-N-(3-chlorophenyl)-2-(4-(cyclopentylamino)phenyl)-1-(2-fluoro-6-methylbenzoyl)octahydro-1H-cyclopenta[b]pyridine-3-carboxamide]: 50 to 500 nM and 500 to 2000 nM.
For `Cc1cccc(F)c1C(=O)N1[C@@H]2CCC[C@@H]2C[C@H](C(=O)Nc2ccc(F)c(C(F)(F)F)c2)[C@@H]1c1ccc(NC2CCCC2)cc1` (relative stereo) [Compound 61, cis-2-(4-(cyclopentylamino)phenyl)-N-(4-fluoro-3-(trifluoromethyl)phenyl)-1-(2-fluoro-6-methylbenzoyl)octahydro-1H-cyclopenta[b]pyridine-3-carboxamide], the IC50 in assay [1] fell in the range of 2000 to 5000 nM; at C5aR it was 2000 to 10000 nM.
Turning to `Cc1cccc(F)c1C(=O)N1[C@@H]2CCC[C@@H]2C[C@H](C(=O)Nc2ccc(F)c(F)c2)[C@@H]1c1ccc(NC2CCCC2)cc1` (relative stereo) [Compound 65, cis-2-(4-(cyclopentylamino)phenyl)-N-(3,4-difluorophenyl)-1-(2-fluoro-6-methylbenzoyl)octahydro-1H-cyclopenta[b]pyridine-3-carboxamide], the IC50 (in assay [1]; at C5aR) was 50 to 500 nM each time.
In the case of `Cc1ccc(NC(=O)C2C[C@@H]3CCC[C@@H]3N(C(=O)c3c(C)cccc3F)C2c2ccc(NC3CCCC3)cc2)cc1P(C)(C)=O` (relative stereo) [Compound 76, cis-2-(4-(cyclopentylamino)phenyl)-N-(3-(dimethylphosphoryl)-4-methylphenyl)-1-(2-fluoro-6-methylbenzoyl)octahydro-1H-cyclopenta[b]pyridine-3-carboxamide], the IC50 was 2000 to 5000 nM in assay [1] and 2000 to 10000 nM at C5aR.
Take `Cc1cccc(F)c1C(=O)N1C2CCC[C@@H]2C[C@H](C(=O)Nc2ccnc(C(F)(F)F)c2)[C@@H]1c1ccc(NC2CCCC2)cc1` (relative stereo) [Compound 79, cis-2-(4-(cyclopentylamino)phenyl)-1-(2-fluoro-6-methylbenzoyl)-N-(2-(trifluoromethyl)pyridin-4-yl)octahydro-1H-cyclopenta[b]pyridine-3-carboxamide]: the IC50 is 2000 to 5000 nM in assay [1] and 2000 to 10000 nM on C5aR.
Take `Cc1ccc(NC(=O)C2C[C@H]3CCC[C@H]3N(C(=O)c3cn(C)cn3)C2c2ccc(NC3CCCC3)cc2)cc1C(F)(F)F` (relative stereo) [Compound 113, cis-2-(4-(cyclopentylamino)phenyl)-1-(1-methyl-1H-imidazole-4-carbonyl)-N-(4-methyl-3-(trifluoromethyl)phenyl)octahydro-1H-cyclopenta[b]pyridine-3-carboxamide]: the figures for the IC50 (in assay [1]; at C5aR) were 2000 to 5000 nM and > 10000 nM, respectively.
As for `Cc1cccc(F)c1C(=O)N1C2COC[C@@H]2C[C@H](C(=O)Nc2ccccc2)[C@@H]1c1ccc(NC2CCOCC2)cc1` (relative stereo) [Compound 129, cis-1-(2-fluoro-6-methylbenzoyl)-N-phenyl-2-(4-((tetrahydro-2H-pyran-4-yl)amino)phenyl)octahydrofuro[3,4-b]pyridine-3-carboxamide], the IC50 in assay [1] was in the range of 2000 to 5000 nM; at C5aR, 2000 to 10000 nM.
Take `Cc1cccc(F)c1C(=O)N1C(c2ccc(NC3CCCC3)cc2)C(C(=O)Nc2ccc3c(c2)CCNC3)C[C@@H]2CCC[C@@H]21` (relative stereo) [Compound 184, cis-2-(4-(cyclopentylamino)phenyl)-1-(2-fluoro-6-methylbenzoyl)-N-(1,2,3,4-tetrahydroisoquinolin-6-yl)octahydro-1H-cyclopenta[b]pyridine-3-carboxamide]: the IC50 in assay [1] lay within 2000 to 5000 nM; at C5aR, 2000 to 10000 nM.
For the compound `Cc1cccc(F)c1C(=O)N1C(c2ccc(N(C)C3CCCC3)cc2)C(C(=O)Nc2ccc3c(c2)CCN(C)C3)C[C@@H]2CCC[C@@H]21` (relative stereo) [Compound 201, cis-2-(4-(cyclopentyl(methyl)amino)phenyl)-1-(2-fluoro-6-methylbenzoyl)-N-(2-methyl-1,2,3,4-tetrahydroisoquinolin-6-yl)octahydro-1H-cyclopenta[b]pyridine-3-carboxamide], the IC50 was > 5000 nM in assay [1] and 2000 to 10000 nM on C5aR.
Regarding `Cc1ccc(NC(=O)[C@H]2CCCN(c3ccnc(Cl)n3)[C@H]2c2ccc(NC3CCCC3)cc2)cc1C(F)(F)F` [Compound 2, (2R,3S)-1-(2-chloropyrimidin-4-yl)-2-(4-(cyclopentylamino)phenyl)-N-(4-methyl-3-(trifluoromethyl)phenyl)piperidine-3-carboxamide], the results for the IC50 (in assay [1]; on C5aR) were 2000 to 5000 nM and 2000 to 10000 nM, respectively.
As to `Cc1ccc(NC(=O)[C@H]2CCCN(c3ccncn3)[C@H]2c2ccc(NC3CCCC3)cc2)cc1C(F)(F)F` [Compound 4, (2R,3S)-2-(4-(cyclopentylamino)phenyl)-N-(4-methyl-3-(trifluoromethyl)phenyl)-1-(pyrimidin-4-yl)piperidine-3-carboxamide], the figures for the IC50 (in assay [1]; at C5aR) were 2000 to 5000 nM and 2000 to 10000 nM, respectively.
`Cc1ccc(NC(=O)[C@H]2CCCN(c3nccc4cccnc34)[C@H]2c2ccc(NC3CCCC3)cc2)cc1C(F)(F)F` [Compound 6, (2R,3S)-2-(4-(cyclopentylamino)phenyl)-N-(4-methyl-3-(trifluoromethyl)phenyl)-1-(1,7-naphthyridin-8-yl)piperidine-3-carboxamide]: the results for the IC50 (in assay [1]; on C5aR) were 500 to 2000 nM and 2000 to 10000 nM, respectively.
The matching figures for `Cc1ccc(NC(=O)[C@@H]2CCCN(c3ncnc4cccnc34)[C@H]2c2ccc(NC3CCCC3)cc2)cc1C(F)(F)F` [Compound 7, (2R,3R)-2-(4-(cyclopentylamino)phenyl)-N-(4-methyl-3-(trifluoromethyl)phenyl)-1-(pyrido[3,2-d]pyrimidin-4-yl)piperidine-3-carboxamide]: 2000 to 5000 nM and 2000 to 10000 nM.

Values taken from US20240043439A1, “COMPOUNDS AS C5AR INHIBITORS” (Kira Pharmaceuticals (Suzhou) Ltd., priority 2020, published 2024).
